# From US20240384350A1, “METHODS OF TREATING CANCER WITH KINASE INHIBITORS” (BOARD OF REGENTS, THE UNIVERSITY OF TEXAS SYSTEM, priority 2021, published 2024)
# How the values were obtained:
# Test in all cases: Ba/F3 drug screening, Cell Titer Glo, IC50 Mut/WT
# Assay type in all cases: cell-based
# EGFR G719S = biological target: T1, EGFR G719S (Homo sapiens, UniProt P00533, G719S); conditions: PACC; G719S; Ba/F3; 72 hours
# T1 construct: expressed in transfected cells; host or cells: Ba/F3
# EGFR L858R T790M V843I = biological target: T2, EGFR L858R T790M V843I (Homo sapiens, UniProt P00533, L858R/T790M/V843I); conditions: T790M-like-3S, 72 hours
# T2 construct: expressed in transfected cells; host or cells: Ba/F3
# Method: Data represent the ratio of the IC50 value for a given TKI for cells with a T790M-like-3S EGFR mutation to the IC50 value for cells with wildtype EGFR.
# (§1) Ba/F3 cell generation, drug screening, and IC50 approximations. Ba/F3 cells were obtained as a gift from Dr. Gordon Mills (MD Anderson Cancer Center), and maintained in RPMI (Sigma) containing 10% FBS, 1% penicillin/streptomycin, and 10 ng/ml recombinant mIL-3 (R&D Biosystems). To establish stable Ba/F3 cell lines, Ba/F3 cells were transduced with retroviruses containing mutant EGFR plasmids for 12-24 hours.
# (§2) After 48-72 hours of transduction, 2 μg/ml puromycin (Invitrogen) was added to Ba/F3 cell lines in complete RPMI. To select for EGFR positive cell lines, cells were stained with PE-EGFR (Biolegend) and sorted by FACS. After sorting, EGFR positive cells were maintained in RPMI containing 10% FBS, 1% penicillin/streptomycin, and 1 ng/ml EGF to support cell viability. Drug screening was performed as previously described^41,42. Shortly, cells were plated in 384-well plates (Greiner Bio-One) at 2000-3000 cells per well in technical triplicate. Seven different concentrations of TKIs or DMSO vehicle were added to reach a final volume of 40 μL per well. After 72 hours, 11 μL of Cell Titer Glo (Promega) was added to each well. Plates were incubated for a minimum of 10 minutes, and bioluminescence was determined using a FLUOstar OPTIMA plate reader (BMG LABTECH). Raw bioluminescence values were normalized to DMSO control treated cells, and values were plotted in GraphPad Prism. […] Drug screens were performed in technical triplicate on each plate and either duplicate or triplicate biological replicates.
# EGFR L718Q T790M = biological target: T3, EGFR L718Q T790M (Homo sapiens, UniProt P00533, L718Q/T790M); conditions: T790M-like-3R, 72 hours
# T3 construct: expressed in transfected cells; host or cells: Ba/F3
# EGFR E709K = biological target: T4, EGFR E709K (Homo sapiens, UniProt P00533, E709K); conditions: PACC; E709K; Ba/F3; 72 hours
# T4 construct: expressed in transfected cells; host or cells: Ba/F3
# EGFR L858R/L718V = biological target: T5, EGFR L858R/L718V (Homo sapiens, UniProt P00533, L718V/L858R); conditions: PACC; L858R/L718V; Ba/F3; 72 hours
# T5 construct: host or cells: Ba/F3
# Method: (§3) Data represent the ratio of the IC50 value for a given TKI for cells with a PACC EGFR mutation to the IC50 value for cells with wildtype EGFR.
# as §1, §2
# EGFR Ex19del = biological target: T6, EGFR Ex19del (Homo sapiens, UniProt P00533, DEL746-750); conditions: Classical-Like, 72 hours
# T6 construct: expressed in transfected cells; host or cells: Ba/F3 cells, retroviral pBabe-Puro vector
# EGFR T725M = biological target: T7, EGFR T725M (Homo sapiens, UniProt P00533, T725M); conditions: Classical-Like, 72 hours
# T7 construct: expressed in transfected cells; host or cells: Ba/F3 cells, retroviral pBabe-Puro vector (vector made by GeneScript from EGFR WT)
# EGFR E709A = biological target: T8, EGFR E709A (Homo sapiens, UniProt P00533, E709A); conditions: PACC; E709A; Ba/F3; 72 hours
# T8 construct: expressed in transfected cells; host or cells: Ba/F3
# Method: as §3, §1, §2
# EGFR T790M = biological target: T9, EGFR T790M (Homo sapiens, UniProt P00533, T790M); conditions: T790M-like-3S, 72 hours
# T9 construct: expressed in transfected cells; host or cells: Ba/F3
# [1] = biological target: T10, EGFR L747_K754del insATSPE (Homo sapiens, UniProt P00533, DEL747-749/K754E); conditions: T790M-like-3S, 72 hours
# T10 construct: expressed in transfected cells; host or cells: Ba/F3 cells, retroviral pBabe-Puro vector
# EGFR H773insNPH = biological target: T11, EGFR H773insNPH (Homo sapiens, UniProt P00533, INS773NPH); conditions: Ex20, 72 hours
# T11 construct: expressed in transfected cells; host or cells: Ba/F3 cells, retroviral pBabe-Puro vector
# Method: Data represent the ratio of the IC50 value for a given TKI for cells with an ex20ins EGFR mutation to the IC50 value for cells with wildtype EGFR.
# as §1
# After 48-72 hours of transduction, 2 μg/ml puromycin (Invitrogen) was added to Ba/F3 cell lines in complete RPMI. To select for EGFR positive cell lines, cells were stained with PE-EGFR (Biolegend) and sorted by FACS. After sorting, EGFR positive cells were maintained in RPMI containing 10% FBS, 1% penicillin/streptomycin, and 1 ng/ml EGF to support cell viability. Drug screening was performed as previously described^41,42. Shortly, cells were plated in 384-well plates (Greiner Bio-One) at 2000-3000 cells per well in technical triplicate. Seven different concentrations of TKIs or DMSO vehicle were added to reach a final volume of 40 μL per well. After 72 hours, 11 μL of Cell Titer Glo (Promega) was added to each well. Plates were incubated for a minimum of 10 minutes, and bioluminescence was determined using a FLUOstar OPTIMA plate reader (BMG LABTECH). Raw bioluminescence values were normalized to DMSO control treated cells, and values were plotted in GraphPad Prism. […] Drug screens were performed in technical triplicate on each plate and either duplicate or triplicate biological replicates. […] Statistical differences between groups were determined by ANOVA as described in the figure legends.
# EGFR S768I/V769L = biological target: T12, EGFR S768I/V769L (Homo sapiens, UniProt P00533, S768I/V769L); conditions: PACC; S768I/V769L; Ba/F3; 72 hours
# T12 construct: host or cells: Ba/F3
# EGFR S720P = biological target: T13, EGFR S720P (Homo sapiens, UniProt P00533, S720P); conditions: Classical-Like, 72 hours
# T13 construct: expressed in transfected cells; host or cells: Ba/F3 cells, retroviral pBabe-Puro vector (vector made by GeneScript from EGFR WT)
# Method: (§4) Data represent the ratio of the IC50 value for a given TKI for cells with a classical-like EGFR mutation to the IC50 value for cells with wildtype EGFR.
# as §1
# (§5) After 48-72 hours of transduction, 2 μg/ml puromycin (Invitrogen) was added to Ba/F3 cell lines in complete RPMI. To select for EGFR positive cell lines, cells were stained with PE-EGFR (Biolegend) and sorted by FACS. After sorting, EGFR positive cells were maintained in RPMI containing 10% FBS, 1% penicillin/streptomycin, and 1 ng/ml EGF to support cell viability. […] Shortly, cells were plated in 384-well plates (Greiner Bio-One) at 2000-3000 cells per well in technical triplicate. Seven different concentrations of TKIs or DMSO vehicle were added to reach a final volume of 40 μL per well. After 72 hours, 11 μL of Cell Titer Glo (Promega) was added to each well. Plates were incubated for a minimum of 10 minutes, and bioluminescence was determined using a FLUOstar OPTIMA plate reader (BMG LABTECH). Raw bioluminescence values were normalized to DMSO control treated cells, and values were plotted in GraphPad Prism. […] Drug screens were performed in technical triplicate on each plate and either duplicate or triplicate biological replicates.
# EGFR Ex19del/T790M/L792H = biological target: T14, EGFR Ex19del/T790M/L792H (Homo sapiens, UniProt P00533, DEL746-750/L792H/T790M); conditions: T790M-like-3R, 72 hours
# T14 construct: expressed in transfected cells; host or cells: Ba/F3
# EGFR L833V = biological target: T15, EGFR L833V (Homo sapiens, UniProt P00533, L833V); conditions: Classical-Like, 72 hours
# T15 construct: expressed in transfected cells; host or cells: Ba/F3 cells, retroviral pBabe-Puro vector
# EGFR G719A/R776C = biological target: T16, EGFR G719A/R776C (Homo sapiens, UniProt P00533, G719A/R776C); conditions: PACC; G719A/R776C; Ba/F3; 72 hours
# T16 construct: expressed in transfected cells; host or cells: Ba/F3
# EGFR L858R/C797S = biological target: T17, EGFR L858R/C797S (Homo sapiens, UniProt P00533, C797S/L858R); conditions: PACC; L858R/C797S; Ba/F3; 72 hours
# T17 construct: expressed in transfected cells; host or cells: Ba/F3
# Method: as §3, §1, §2
# EGFR Ex19del/L792H = biological target: T18, EGFR Ex19del/L792H (Homo sapiens, UniProt P00533, DEL746-750/L792H); conditions: PACC; Ex19del/L792H; Ba/F3; 72 hours
# T18 construct: expressed in transfected cells; host or cells: Ba/F3
# EGFR G719S T790M = biological target: T19, EGFR G719S T790M (Homo sapiens, UniProt P00533, G719S/T790M); conditions: T790M-like-3S, 72 hours
# T19 construct: expressed in transfected cells; host or cells: Ba/F3
# EGFR G719A L861Q = biological target: T20, EGFR G719A L861Q (Homo sapiens, UniProt P00533, G719A/L861Q); conditions: PACC; G719A L861Q; Ba/F3; 72 hours
# T20 construct: expressed in transfected cells; host or cells: Ba/F3
# Method: as §3, §1, §2
# EGFR Ex19del T790M = biological target: T21, EGFR Ex19del T790M (Homo sapiens, UniProt P00533, DEL746-750/T790M); conditions: T790M-like-3S, 72 hours
# T21 construct: expressed in transfected cells; host or cells: Ba/F3
# EGFR R776H = biological target: T22, EGFR R776H (Homo sapiens, UniProt P00533, R776H); conditions: PACC; R776H; Ba/F3; 72 hours
# T22 construct: host or cells: Ba/F3
# EGFR N771dupN G724S = biological target: T23, EGFR N771dupN G724S (Homo sapiens, UniProt P00533, DUP771-771/G724S); conditions: Ex20, 72 hours
# T23 construct: expressed in transfected cells; host or cells: Ba/F3 cells, retroviral pBabe-Puro vector (vector made by GeneScript from EGFR G724S, c.2313_2314insAAC)
# EGFR S768dupSVD = biological target: T24, EGFR S768dupSVD (Homo sapiens, UniProt P00533, DUP768-770); conditions: Ex20, 72 hours
# T24 construct: expressed in transfected cells; host or cells: Ba/F3 cells, retroviral pBabe-Puro vector
# EGFR E709A G719S = biological target: T25, EGFR E709A G719S (Homo sapiens, UniProt P00533, E709A/G719S); conditions: PACC; E709A G719S; Ba/F3; 72 hours
# T25 construct: expressed in transfected cells; host or cells: Ba/F3
# EGFR S784F = biological target: T26, EGFR S784F (Homo sapiens, UniProt P00533, S784F); conditions: Classical-Like, 72 hours
# T26 construct: expressed in transfected cells; host or cells: Ba/F3 cells, retroviral pBabe-Puro vector (vector made by GeneScript from EGFR WT)
# Method: as §4, §1, §5
smiles,measurement,setting,value
CNC(=O)CN1CCC(Oc2cc3c(Nc4cccc(Cl)c4F)ncnc3cc2OC)CC1 [Sapatinib],ratio of IC50 for cells with mutant EGFR to IC50 for cells with wildtype EGFR (Mut/WT),EGFR G719S,0.1998
same,ratio of IC50 for cells with mutant EGFR to IC50 for cells with wildtype EGFR (Mut/WT),EGFR L858R T790M V843I,49
same,ratio of IC50 for cells with mutant EGFR to IC50 for cells with wildtype EGFR (Mut/WT),EGFR L718Q T790M,54.78
same,ratio of IC50 for cells with mutant EGFR to IC50 for cells with wildtype EGFR (Mut/WT),EGFR E709K,0.1216
same,ratio of IC50 for cells with mutant EGFR to IC50 for cells with wildtype EGFR (Mut/WT),EGFR L858R/L718V,0.05575
same,ratio of IC50 for cells with mutant EGFR to IC50 for cells with wildtype EGFR (Mut/WT),EGFR Ex19del,0.0005535
same,ratio of IC50 for cells with mutant EGFR to IC50 for cells with wildtype EGFR (Mut/WT),EGFR T725M,0.00667
same,ratio of IC50 for cells with mutant EGFR to IC50 for cells with wildtype EGFR (Mut/WT),EGFR E709A,0.3243
same,ratio of IC50 for cells with mutant EGFR to IC50 for cells with wildtype EGFR (Mut/WT),EGFR T790M,70.5
same,ratio of IC50 for cells with mutant EGFR to IC50 for cells with wildtype EGFR (Mut/WT),[1],7.978
same,ratio of IC50 for cells with mutant EGFR to IC50 for cells with wildtype EGFR (Mut/WT),EGFR H773insNPH,1.265
same,ratio of IC50 for cells with mutant EGFR to IC50 for cells with wildtype EGFR (Mut/WT),EGFR S768I/V769L,0.2596
same,ratio of IC50 for cells with mutant EGFR to IC50 for cells with wildtype EGFR (Mut/WT),EGFR S720P,0.004664
same,ratio of IC50 for cells with mutant EGFR to IC50 for cells with wildtype EGFR (Mut/WT),EGFR Ex19del/T790M/L792H,451.7
same,ratio of IC50 for cells with mutant EGFR to IC50 for cells with wildtype EGFR (Mut/WT),EGFR L833V,0.008594
same,ratio of IC50 for cells with mutant EGFR to IC50 for cells with wildtype EGFR (Mut/WT),EGFR G719A/R776C,0.0489
same,ratio of IC50 for cells with mutant EGFR to IC50 for cells with wildtype EGFR (Mut/WT),EGFR L858R/C797S,0.001101
same,ratio of IC50 for cells with mutant EGFR to IC50 for cells with wildtype EGFR (Mut/WT),EGFR Ex19del/L792H,53.47
same,ratio of IC50 for cells with mutant EGFR to IC50 for cells with wildtype EGFR (Mut/WT),EGFR G719S T790M,54.78
same,ratio of IC50 for cells with mutant EGFR to IC50 for cells with wildtype EGFR (Mut/WT),EGFR G719A L861Q,0.04615
same,ratio of IC50 for cells with mutant EGFR to IC50 for cells with wildtype EGFR (Mut/WT),EGFR Ex19del T790M,10.73
same,ratio of IC50 for cells with mutant EGFR to IC50 for cells with wildtype EGFR (Mut/WT),EGFR R776H,0.001939
same,ratio of IC50 for cells with mutant EGFR to IC50 for cells with wildtype EGFR (Mut/WT),EGFR N771dupN G724S,1.103
same,ratio of IC50 for cells with mutant EGFR to IC50 for cells with wildtype EGFR (Mut/WT),EGFR S768dupSVD,2.666
same,ratio of IC50 for cells with mutant EGFR to IC50 for cells with wildtype EGFR (Mut/WT),EGFR E709A G719S,0.02227
same,ratio of IC50 for cells with mutant EGFR to IC50 for cells with wildtype EGFR (Mut/WT),EGFR S784F,0.08508
